Reference: PubChem BioAssay (NCI)
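Step 1: Grow cells in 96-well plates. Step 2: Expose to compound for 48 hours at 5 concentrations. Step 3: Interpolate endpoints linearly; if unreached, use highest concentration. GI50 is the concentration that inhibits growth by half. At the TGI there is no net growth.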

Assays:
Test in all cases: NCI anticancer screen, dose series, 48 h
RXF 393 renal = system: RXF 393 renal
EKVX NSCLC = system: EKVX NSCLC
CAKI-1 renal = system: CAKI-1 renal
HCC-2998 colon = system: HCC-2998 colon
NCI/ADR-RES ovarian = system: NCI/ADR-RES ovarian
SF-539 CNS = system: SF-539 CNS
COLO 205 colon = system: COLO 205 colon
BT-549 breast = system: BT-549 breast
NCI-H226 lung = system: NCI-H226 lung
M14 melanoma = system: M14 melanoma
OVCAR-4 ovarian = system: OVCAR-4 ovarian
SK-MEL-2 melanoma = system: SK-MEL-2 melanoma
MOLT-4 leukemia = system: MOLT-4 leukemia
OVCAR-8 ovarian = system: OVCAR-8 ovarian
SF-295 CNS = system: SF-295 CNS
OVCAR-3 ovarian = system: OVCAR-3 ovarian
MDA-MB-435 = system: MDA-MB-435
HT29 colon = system: HT29 colon
HS 578T breast = system: HS 578T breast
A498 renal = system: A498 renal
A549 NSCLC = system: A549 NSCLC
SK-MEL-5 melanoma = system: SK-MEL-5 melanoma
MALME-3M melanoma = system: MALME-3M melanoma
SR leukemia = system: SR leukemia
SF-268 CNS = system: SF-268 CNS
RPMI-8226 leukemia = system: RPMI-8226 leukemia
HOP-92 NSCLC = system: HOP-92 NSCLC
MCF7 breast = system: MCF7 breast
SW-620 colon = system: SW-620 colon
786-0 renal = system: 786-0 renal
KM12 colon = system: KM12 colon
SK-OV-3 ovarian = system: SK-OV-3 ovarian
MDA-MB-231 breast = system: MDA-MB-231 breast
SK-MEL-28 melanoma = system: SK-MEL-28 melanoma
K-562 leukemia = system: K-562 leukemia
HOP-62 NSCLC = system: HOP-62 NSCLC
UO-31 renal = system: UO-31 renal
HCT-15 colon = system: HCT-15 colon
HCT-116 colon = system: HCT-116 colon
NCI-H23 lung = system: NCI-H23 lung
LOX IMVI melanoma = system: LOX IMVI melanoma
T-47D breast = system: T-47D breast
HL-60(TB) leukemia = system: HL-60(TB) leukemia
IGROV1 ovarian = system: IGROV1 ovarian

`C#C[C@]1(O)CC[C@H]2[C@@H]3CC=C4c5sc(Nc6cc(Cl)ccc6OC)nc5CC[C@]4(C)[C@H]3CC[C@@]21C` showed a GI50 (RXF 393 renal) of 178 nM, a TGI (RXF 393 renal) of 503 nM and a GI50 (EKVX NSCLC) of 1630 nM. It also gave a TGI (EKVX NSCLC) of 6390 nM, a GI50 (CAKI-1 renal) of 1520 nM and a TGI (CAKI-1 renal) of 4150 nM. It also gave a GI50 (HCC-2998 colon) of 1750 nM, a TGI (HCC-2998 colon) of 3390 nM and a GI50 (NCI/ADR-RES ovarian) of 2520 nM. The TGI (NCI/ADR-RES ovarian) was 48800 nM, the GI50 (SF-539 CNS) was 359 nM and the TGI (SF-539 CNS) was 1460 nM. The GI50 (COLO 205 colon) was 2190 nM, the TGI (COLO 205 colon) was 4390 nM and the GI50 (BT-549 breast) was 797 nM. The TGI (BT-549 breast) was 5460 nM, the GI50 (NCI-H226 lung) was 1620 nM and the TGI (NCI-H226 lung) was 3510 nM. It also gave a GI50 (M14 melanoma) of 1400 nM, a TGI (M14 melanoma) of 4930 nM and a GI50 (OVCAR-4 ovarian) of 3540 nM. For the same molecule, the TGI (OVCAR-4 ovarian) was over 100000 nM, the GI50 (SK-MEL-2 melanoma) was 1300 nM and the TGI (SK-MEL-2 melanoma) was 4610 nM. It also gave a GI50 (MOLT-4 leukemia) of 454 nM, a TGI (MOLT-4 leukemia) of 4600 nM and a GI50 (OVCAR-8 ovarian) of 3550 nM. The TGI (OVCAR-8 ovarian) was over 100000 nM, the GI50 (SF-295 CNS) was 306 nM and the TGI (SF-295 CNS) was 1120 nM. For the same molecule, the GI50 (OVCAR-3 ovarian) was 1640 nM, the TGI (OVCAR-3 ovarian) was 3560 nM and the GI50 (MDA-MB-435) was 1890 nM. The TGI (MDA-MB-435) was 5410 nM, the GI50 (HT29 colon) was 1790 nM and the TGI (HT29 colon) was 4860 nM. The GI50 (HS 578T breast) was 486 nM, the TGI (HS 578T breast) was 5870 nM and the GI50 (A498 renal) was 219 nM. The TGI (A498 renal) was 1050 nM, the GI50 (A549 NSCLC) was 2860 nM and the TGI (A549 NSCLC) was over 100000 nM. The GI50 (SK-MEL-5 melanoma) was 1930 nM, the TGI (SK-MEL-5 melanoma) was 4050 nM and the GI50 (MALME-3M melanoma) was 1330 nM. It also gave a TGI (MALME-3M melanoma) of 3700 nM, a GI50 (SR leukemia) of 578 nM and a TGI (SR leukemia) of 4510 nM. For the same molecule, the GI50 (SF-268 CNS) was 2210 nM, the TGI (SF-268 CNS) was over 100000 nM and the GI50 (RPMI-8226 leukemia) was 251 nM. For the same molecule, the TGI (RPMI-8226 leukemia) was 684 nM, the GI50 (HOP-92 NSCLC) was 2470 nM and the TGI (HOP-92 NSCLC) was 6750 nM. The GI50 (MCF7 breast) was 808 nM, the TGI (MCF7 breast) was 2350 nM and the GI50 (SW-620 colon) was 1670 nM. The TGI (SW-620 colon) was 3860 nM, the GI50 (786-0 renal) was 381 nM and the TGI (786-0 renal) was 1970 nM. The GI50 (KM12 colon) was 1970 nM, the TGI (KM12 colon) was 4350 nM and the GI50 (SK-OV-3 ovarian) was 4270 nM. It also gave a TGI (SK-OV-3 ovarian) of over 100000 nM, a GI50 (MDA-MB-231 breast) of 1960 nM and a TGI (MDA-MB-231 breast) of 4880 nM. For the same molecule, the GI50 (SK-MEL-28 melanoma) was 420 nM, the TGI (SK-MEL-28 melanoma) was 1660 nM and the GI50 (K-562 leukemia) was 581 nM. It also gave a TGI (K-562 leukemia) of 9420 nM, a GI50 (HOP-62 NSCLC) of 2560 nM and a TGI (HOP-62 NSCLC) of over 100000 nM. For the same molecule, the GI50 (UO-31 renal) was 1450 nM, the TGI (UO-31 renal) was 3040 nM and the GI50 (HCT-15 colon) was 1330 nM. The TGI (HCT-15 colon) was 3260 nM, the GI50 (HCT-116 colon) was 1130 nM and the TGI (HCT-116 colon) was 2560 nM. For the same molecule, the GI50 (NCI-H23 lung) was 1810 nM, the TGI (NCI-H23 lung) was over 100000 nM and the GI50 (LOX IMVI melanoma) was 1380 nM. The TGI (LOX IMVI melanoma) was 2880 nM, the GI50 (T-47D breast) was 2410 nM and the TGI (T-47D breast) was over 100000 nM. For the same molecule, the GI50 (HL-60(TB) leukemia) was 840 nM, the TGI (HL-60(TB) leukemia) was 3960 nM and the GI50 (IGROV1 ovarian) was 1790 nM. For the same molecule, the TGI (IGROV1 ovarian) was 5640 nM.
